Assay results from patent US20240316023A1, “BENEDIN, PIPERIDINE, 2-BENZHYDRYL-3-HYDROXY-N-METHYL-, HYDROCHLORIDE AND DERIVATIVES THEREOF FOR USE IN TREATING KLEINE-LEVIN SYNDROME” (priority 2021, published 2024).

How the values were obtained:
[1] = test system: patients with frequent episodes of KLS; settings: compared to rest of stimulants; cited from earlier work
Mice, C57BL/6J, male = assay: Novel object recognition (NOR) test, long-term memory; assay type: in vivo; settings: donepezil 2 mg/kg i.p.; 3-days interval
Experimental: Long-term episodic memory was tested in the NOR test, using a 3-days interval between the acquisition session (called sample trial) and the retention session (called choice trial). This method allows to detect an improvement of memory in the natural forgetting condition:
The test was carried out in circular boxes (30 cm diameter, 40 cm high). The objects to be discriminated (L≈1≈h≈3-4 cm) differed in both color and shape and were referred as yellow duck and blue lego. They were fixed with a magnet to the floor of the boxes at 5 cm of the wall, 20 cm distant. Apparently, they have no natural significance for mice and they have never been associated with a reinforcement. In order to rule out the possibility of scent traces left on the objects and therefore the dependency of the recognition capacity of mice on the olfactory cue, the objects and the ground of the box were washed with an odorless disinfectant (Sanicid® diluted in water) and dried between each trial. A camcorder was fixed to the ceiling above the box to record the animals' activity. The experiment was analyzed blindly at a later time.
On the week before the test, animals were handled by the experimenter in charge of the experiment in order to be not stressed at the time of testing. For this purpose, the experimenter placed a small amount of litter, and then the mouse on its hand. […] The NOR test was completed over five days (see FIG. 1): • Day 1: Habituation trial. Animals were individually placed for a 15-min free exploration session in empty open boxes. • Day 2. Treatment administration and sample trial. […] They were individually placed 30 min after in the apparatus for a 6-min session with two identical objects (Duck, 50% of animals or Lego, 50% of animals). • […]. […]. The mice were individually placed for a 6-min session in the apparatus with two objects (Duck and Lego), one of the objects presented in sample trials (termed as familiar objects) and a novel object (Lego, 50% of animals or Duck, 50% of animals).
The sample and choice trials were recorded with the camera located above the apparatus. The time spent by mice in exploring the objects was measured during the sample trial and the choice trial.
Exploration of an object was defined as follows: directing the nose to the object at a distance≤2 cm and/or touching it with the nose or forelimbs: turning around or biting the object, or sitting on the object were not considered as exploratory behavior.
Data recorded: • L=exploration time of the left object in the sample trial. • R=exploration time of the right object in the sample trial. • N=exploration time of the new object in the choice trial. • F=exploration time of the familiar object in the choice trial. Object recognition task indices include the following parameters: • Exploration indices: • ST=L+R=exploration time (left object+right object) in the sample trial. • CT=N+F=exploration time (new object+familiar object) in the choice trial. • Two memory indices: • N−F=difference of exploration time between the new object and the familiar object in the choice trial.
Statistical analyses: • Read-outs: DI, N−F, ST, CT, N, F • Unpaired Student's t test: Donep 2 group vs. Control group. • One-way ANOVA, Dunnett test: • Benedin groups vs. Control group. • Benedin groups vs. Donep 2 group. • Read-outs: DI and N−F, for all groups, paired Student's t test, difference vs. 0. • Body weight: one-way ANOVA.

Compound	response (reducing the number of episodes) [1]	recognition of the familiar object, i.e. memory (Mice, C57BL/6J, male)
NC12CC3CC(CC(C3)C1)C2 [Amantadine]	41%	–
Donepezil hydrochloride [reference compound]	–	improved the recognition of the familiar object
